Laboratory results as given in ChEMBL document CHEMBL5244275, “Geminal Diheteroatomic Motifs: Some Applications of Acetals, Ketals, and Their Sulfur and Nitrogen Homologues in Medicinal Chemistry and Drug Design” (J Med Chem, 2021).
Converted amounts (≈) assume the structure as drawn.

Experiments:
[1] = Stability of the compound at pH 8 assessed as compound hydrolysis by measuring half-life; type: physicochemical; conditions: buffer
[2] = target: T1, Neutrophil elastase (Homo sapiens) (UniProt P08246); assay: Time-dependent inhibition of human leukocyte elastase assessed as observed binding constant
T1 sequence (whole entry): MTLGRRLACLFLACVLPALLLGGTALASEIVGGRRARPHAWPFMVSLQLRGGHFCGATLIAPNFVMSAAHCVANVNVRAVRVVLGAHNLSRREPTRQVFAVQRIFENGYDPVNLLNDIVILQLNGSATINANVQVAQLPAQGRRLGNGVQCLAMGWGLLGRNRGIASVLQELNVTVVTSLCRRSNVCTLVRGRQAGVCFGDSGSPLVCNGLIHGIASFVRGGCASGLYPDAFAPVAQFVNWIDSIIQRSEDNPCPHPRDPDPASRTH

Plasmodium falciparum [3] = assay: Antiplasmodial activity against Plasmodium falciparum FcM29 assessed as inhibition of plasmodial growth; type: functional, organism-based
[4] = target: Human immunodeficiency virus type 1 protease (Human immunodeficiency virus 1, UniProt Q72874); assay: Inhibition of HIV-1 protease
Candida albicans [5] = assay: Antifungal activity against Candida albicans GS; type: functional, organism-based
Candida albicans [6] = assay: Fungicidal activity against Candida albicans; type: functional
[7] = Stability of the compound in 20% aqueous dioxane solution at 30 degreeC assessed as compound hydrolysis by measuring rate constant; type: physicochemical; conditions: buffer
Hepatitis C virus = assay: Antiviral activity against Hepatitis C virus genotype 1a harboring NS5A Y93H mutant; type: functional, organism-based, Hepacivirus hominis
[8] = Oral bioavailability in human; type: ADME, organism-based; conditions: in vivo
[9] = Aqueous solubility of compound; type: physicochemical; conditions: aqueous (not further specified)
[10] = Aqueous stability of the compound assessed as acid-catalyzed decomposition by measuring rate constant; type: physicochemical; conditions: buffer
[11] = Stability of the compound at pH 7.4 aqueous phosphate buffer assessed as half-life; type: physicochemical
[12] = test system: Human immunodeficiency virus 1; assay: microbe, parasite or virus in culture; conditions: Human immunodeficiency virus 1, LAV
[13] = Oral bioavailability in rat; type: ADME, organism-based; conditions: in vivo
[14] = Stability of the compound assessed as acid hydrolysis by measuring half-life; type: physicochemical
[15] = Inhibition of Leukotriene B4 production in human blood Polymorphonuclear neutrophil cells; type: functional, tissue-based
[16] = Cmax in rat plasma at 20 mg/kg, po; type: ADME, organism-based; design: dose 20 mg/kg, route po
[17] = Stability of the compound at pH 1 assessed as half-life; type: physicochemical; conditions: buffer
Escherichia coli [18] = assay: Inhibition of Escherichia coli beta-lactamase at 1 uM relative to control
Pasteurella multocida = assay: Antibacterial activity against Pasteurella multocida 59A0067 assessed as inhibition of bacterial growth by microdilution method; type: functional
Escherichia coli [19] = assay: Antibacterial activity against Escherichia coli 51A0150 assessed as inhibition of bacterial growth by microdilution method; type: functional
Staphylococcus aureus = assay: Antibacterial activity against Staphylococcus aureus 01A0785 assessed as inhibition of bacterial growth by microdilution method; type: functional
[20] = Dissociation constant, pKa of the compound; type: physicochemical
[21] = Inhibition of Calcium channel (unknown origin); design: species or system Homo sapiens
Plasmodium falciparum [22] = assay: Antiplasmodial activity against Plasmodium falciparum W2 assessed as inhibition of parasite growth; type: functional, organism-based
[23] = Stability of the compound in 0.01 N HCL at pH 2.0 assessed as half-life; type: physicochemical

CC[C@@H]1C(=O)N(C(C)=O)[C@H]1OC(C)=O (racemic)
half-life [1]: 2.4 h
K [2]: 4 10^3/M/s

CC(C)C1=C[C@H]2OC3(CCC(N[C@H]4CC[C@H](Nc5ccnc6cc(Cl)ccc56)CC4)CC3)OO[C@@]2(C)CC1 (stereo not given in full)
IC50 (Plasmodium falciparum [3]): 18 nM

CC(C)CN(C[C@@H](O)[C@H](Cc1ccccc1)NC(=O)O[C@H]1C2CO[C@H]3OCC1C3C2)S(=O)(=O)c1ccc2oc(NC3CC3)nc2c1 (stereo not given in full)
IC50 [4]: 0.26 nM

CC[C@H](C)C[C@H](C)CCCCCCCCC(=O)N[C@H]1C[C@@H](O)[C@@H](OCCN)NC(=O)[C@@H]2[C@@H](O)CCN2C(=O)[C@H]([C@H](O)CC(N)=O)NC(=O)[C@H]([C@H](O)[C@@H](O)c2ccc(O)cc2)NC(=O)[C@@H]2C[C@@H](O)CN2C(=O)[C@H]([C@@H](C)O)NC1=O
IC50 (Candida albicans [5]): 10 nM
MFC (Candida albicans [6]): 0.25 µg/mL (≈ 0.226 µM)

c1ccc(C2(c3ccccc3)OCCO2)cc1
K [7]: 3.6 10^-2/M/s

COC(=O)N[C@H](C(=O)N1CCC[C@H]1c1ncc(-c2cc(F)c3c(c2)O[C@@H](c2cnc(C4CC4)s2)n2c-3cc3cc(-c4cnc([C@@H]5CCCN5C(=O)[C@@H](NC(=O)OC)C(C)C)[nH]4)ccc32)[nH]1)C(C)C [RUZASVIR]
EC50 (Hepatitis C virus): 0.06 nM

CC(C)[C@H](N)C(=O)OCC(CO)OCn1cnc2c(=O)nc(N)[nH]c21 (stereo not given in full) [VALGANCICLOVIR]
bioavailability [8]: 65%
solubility [9]: 70 mg/mL (≈ 198000 µM)

c1ccc(C2OCCS2)cc1 (stereo not given)
K [10]: 0.0194 min⁻¹

CCCCC[C@H](O)/C=C/[C@H]1O[C@@H]2O[C@@H]([C@H]2F)[C@@H]1C/C=C\CCCC(=O)O
half-life [11]: 480 h

Nc1nc(=O)n([C@H]2CS[C@@H](CO)O2)cc1F
EC50 [12]: 840 nM

C1CCC2(CC1)OOC1(O2)C2CC3CC(C2)CC1C3 (stereo not given)
solubility [9]: < 0.001 mg/mL
bioavailability [13]: < 1%

CC(C)[C@H](N)C(=O)OCCOCn1cnc2c(=O)[nH]c(N)nc21 [VALACYCLOVIR]
bioavailability [8]: 54%
solubility [9]: 174 mg/mL (≈ 536000 µM)

Nc1ncnc2c1ncn2[C@@H]1O[C@H](CO)C[C@H]1F
half-life [14]: > 1 min

N#Cc1cc(-c2ccoc2)c2ccc(OCc3cccc(C4(O)CCOCC4)n3)cc2c1
IC50 [15]: 0.6 nM
Cmax [16]: 2000 nM
bioavailability [13]: 26%

O=c1ccn([C@H]2C=C[C@@H](CO)O2)c(=O)[nH]1
half-life [17]: 15 h

O=C(O)[C@H]1/C(=C/CO)O[C@@H]2CC(=O)N21
inhibition (Escherichia coli [18]): 81%

Nc1ccn([C@H]2C=C[C@@H](CO)O2)c(=O)n1
half-life [17]: 0.2 h

COc1ccc(S(=O)(=O)N(CC(C)C)C[C@@H](O)[C@H](Cc2ccccc2)NC(=O)O[C@H]2CO[C@H]3O[C@@H]4OCC[C@@H]4[C@H]32)cc1
IC50 [4]: 1.8 nM

CC[C@@H]1C[C@H](O)[C@@H](C)NC[C@H](C)C[C@@]2(C)OC3(CCN(Cc4ccccc4)CC3)O[C@@H]([C@H](C)[C@H]2O[C@@H]2O[C@H](C)C[C@H](N(C)C)[C@H]2O)[C@@H](C)C(=O)O1
MIC (Pasteurella multocida): 0.03 µg/mL (≈ 0.0418 µM)
MIC (Escherichia coli [19]): 0.2 µg/mL (≈ 0.279 µM)
MIC (Staphylococcus aureus): 0.6 µg/mL (≈ 0.836 µM)

FC(F)(F)c1cc(CO[C@H]2CCCN[C@H]2c2ccccc2)cc(C(F)(F)F)c1
pKa [20]: 8.3
IC50 [21]: 780 nM

CC1(C)COC2(CCC(N[C@H]3CC[C@H](Nc4ccnc5cc(Cl)ccc45)CC3)CC2)OO1 (stereo not given in full)
IC50 (Plasmodium falciparum [3]): 10 nM

Cc1ccc(C2OCCS2)cc1 (stereo not given)
K [10]: 0.146 min⁻¹

CC[C@@H]1C[C@H](O)[C@@H](C)NC[C@H](C)C[C@@]2(C)OC3(CCN(C(=O)c4ccco4)CC3)O[C@@H]([C@H](C)[C@H]2O[C@@H]2O[C@H](C)C[C@H](N(C)C)[C@H]2O)[C@@H](C)C(=O)O1
MIC (Pasteurella multocida): 0.05 µg/mL (≈ 0.0693 µM)
MIC (Escherichia coli [19]): 0.78 µg/mL (≈ 1.08 µM)
MIC (Staphylococcus aureus): 0.78 µg/mL (≈ 1.08 µM)

COC(=O)N[C@H](C(=O)N1CCC[C@H]1c1ncc(-c2ccc3c(c2)CCn2c-3cc3cc(-c4cnc([C@@H]5CCCN5C(=O)[C@@H](NC(=O)OC)C(C)C)[nH]4)ccc32)[nH]1)C(C)C
EC50 (Hepatitis C virus): 170 nM

O=C1OCc2c1cc1cc(OCc3cccc(C4(O)CC5CCC(C4)O5)c3)ccc1c2-c1ccccc1 (stereo not given)
IC50 [15]: 8 nM

C[C@@H]1CC[C@H]2[C@@H](C)C(=O)O[C@@H]3O[C@@]4(C)CC[C@@H]1[C@]32OO4 [ARTEMISININ]
IC50 (Plasmodium falciparum [22]): 2.8 nM
half-life [23]: 24 h
IC50 (Plasmodium falciparum [3]): 7 nM
